Columns and labels:
[1] = refractive index (Na D-line) (dimensionless); conditions: 101.33 kPa, Liquid, Standard Abbe refractometry
[2] = for viscosity / mass density: 101.33 kPa, Liquid; for surface tension liquid-gas: Pendant drop shape; for mass density: Vibrating tube method

OCCCCCCn1cc[nH+]c1.[Cl-] [1-(6-hydroxyhexyl)imidazolium chloride]
Conditions | mass density, [2] [kg/m3] | refractive index, [1] | surface tension liquid-gas, [2] [mN/m] | viscosity, [2] [mPa·s]
293.15 K | – | 1.5093 | – | 587.2
298.15 K | – | 1.508 | 51.25 | 420
303.15 K | 1136.59 | 1.5067 | 50.05 | 320.1
308.15 K | 1133.52 | 1.5054 | 48.85 | 245.6
313.15 K | 1130.53 | 1.5041 | 47.75 | 180.5
318.15 K | 1127.58 | 1.5028 | 46.4 | 140.6
323.15 K | 1124.63 | 1.5015 | 44.95 | 110.4
328.15 K | 1121.67 | 1.5002 | – | 91.4
333.15 K | 1118.72 | 1.4989 | – | 72.6
338.15 K | 1115.77 | – | – | 60.7
343.15 K | 1112.84 | – | – | 48.9
348.15 K | 1109.92 | – | – | 41.3
353.15 K | 1107.03 | – | – | 35

CCCCn1cc[n+](CCCCCCO)c1.[Cl-] [1-butyl-3-(6-hydroxyhexyl)-1H-imidazolium chloride]
Conditions | mass density, [2] [kg/m3] | refractive index, [1] | surface tension liquid-gas, [2] [mN/m] | viscosity, [2] [mPa·s]
293.15 K | – | 1.5132 | – | 1489.7
298.15 K | – | 1.5119 | 32.05 | 983.3
303.15 K | 1063.33 | 1.5106 | 30.8 | 707
308.15 K | 1060.6 | 1.5093 | 29.65 | 515.8
313.15 K | 1057.85 | 1.508 | 28.35 | 360.3
318.15 K | 1055.25 | 1.5067 | 27.3 | 271.5
323.15 K | 1052.52 | 1.5054 | 25.9 | 207.7
328.15 K | 1049.89 | 1.5041 | – | 169.4
333.15 K | 1047.18 | 1.5028 | – | 133
338.15 K | 1044.46 | – | – | 110.8
343.15 K | 1041.73 | – | – | 89.4
348.15 K | 1039.05 | – | – | 76.1
353.15 K | 1036.32 | – | – | 65.3

CCn1cc[n+](CCCCCCO)c1.[Cl-] [1-ethyl-3-(6-hydroxyhexyl)-1H-imidazolium chloride]
Conditions | mass density, [2] [kg/m3] | refractive index, [1] | surface tension liquid-gas, [2] [mN/m] | viscosity, [2] [mPa·s]
293.15 K | – | 1.5115 | – | 1348.1
298.15 K | – | 1.5102 | 42.32 | 861.7
303.15 K | 1101.74 | 1.5089 | 41.3 | 604.5
308.15 K | 1098.91 | 1.5076 | 39.95 | 431.3
313.15 K | 1096.23 | 1.5063 | 38.75 | 294
318.15 K | 1093.53 | 1.505 | 37.4 | 217.7
323.15 K | 1090.95 | 1.5037 | 36.25 | 163.9
328.15 K | 1088.27 | 1.5024 | – | 132.2
333.15 K | 1085.63 | 1.5011 | – | 102.6
338.15 K | 1083.07 | – | – | 84.7
343.15 K | 1080.43 | – | – | 67.8
348.15 K | 1077.84 | – | – | 57.4
353.15 K | 1075.27 | – | – | 49.1

Cn1cc[n+](CCCCCCO)c1.[Cl-] [3-(6-hydroxyhexyl)-1-methylimidazolium chloride]
Conditions | mass density, [2] [kg/m3] | refractive index, [1] | surface tension liquid-gas, [2] [mN/m] | viscosity, [2] [mPa·s]
293.15 K | – | 1.5106 | – | 1025.9
298.15 K | – | 1.5093 | 49.95 | 679.8
303.15 K | 1119.49 | 1.508 | 48.75 | 489.7
308.15 K | 1116.65 | 1.5067 | 47.75 | 357.6
313.15 K | 1113.91 | 1.5054 | 46.65 | 249.7
318.15 K | 1111.28 | 1.5041 | 45.35 | 188
323.15 K | 1108.63 | 1.5028 | 43.95 | 143.4
328.15 K | 1105.92 | 1.5015 | – | 116.6
333.15 K | 1103.4 | 1.5002 | – | 91.2
338.15 K | 1100.78 | – | – | 75.7
343.15 K | 1098.14 | – | – | 60.6
348.15 K | 1095.59 | – | – | 51.3
353.15 K | 1092.92 | – | – | 43.8

Source: the NIST ThermoML archive (doi:10.1021/je200589f)
